Experimental data from publication PMC11111691, “Cystine-knot peptide inhibitors of HTRA1 bind to a cryptic pocket within the active site region” (Nature Communications, 2024).
Positions of bridges follow the written chain, without caps; N, C: chain ends. Residues, ends and D or L forms follow the SMILES beside them.

Target: T1, HTRA1^PD(SA) (Homo sapiens, UniProt Q92743, S328A)
T1 construct: The protease domains of human HTRA1 (HTRA1^PD; D161-K379); made in house; host or cells: E. coli
Assay: SPR binding kinetics to HTRA1^PD(SA)
Conditions: mean ± S.D. of three or more independent experiments
Protocol: Surface plasmon resonance (SPR) experiments were performed using a Biacore S200 instrument at 25 °C. His-tagged HTRA proteins were captured on a CM5 sensor chip using the His-capture kit (GE Healthcare). Protein concentrations used for immobilization were as follows; HTRA1^PD(SA), HTRA1^PD and HTRA1^PD-ABP 2 µg/ml with 60-s injections at 10 µl/min, HTRA2^PD/PDZ, HTRA3^PD/PDZ, and HTRA4^PD/PDZ 4 µg/ml with 60-s injections at 10 µl/min. Approximate immobilization levels of HTRA proteins were as follows; HTRA1^PD(SA) 700 RU, HTRA1^PD 900 RU, HTRA1^PD-ABP 900 RU, HTRA2^PD/PDZ 500 RU, HTRA3^PD/PDZ 500 RU, HTRA4^PD/PDZ 500 RU. All CKPs were prepared in HBS-EP buffer (0.01 M HEPES pH 7.4, 0.15 M NaCl, 3 mM EDTA, 0.005% v/v Surfactant P20). All CKP concentrations were injected for 120 s at a flow rate of 30 μl/min. A reference channel was subtracted from the HTRA-captured channel.
Binding kinetics of peptides to HTRA1^PD(SA) were determined by flowing six serial three-fold dilutions of peptide over the HTRA1^PD(SA) immobilized surface using a single cycle kinetics model. CKP maximum concentrations were as follows: 1A7, 1A8, 1C10, 2D5, and 3A7, 300 nM; 1G10-ENI and 1D3-ENI, 100 nM; 3B3, 3000 nM; and CPI, 10,000 nM. Data were analyzed using GE BIA evaluation software using a 1:1 Langmuir binding model. The KD values, calculated from the determined kon and koff values, were the mean ± S.D. of 3–4 independent experiments.

[1] = SPR Biacore S200, 25 °C, single cycle kinetics, 1:1 Langmuir model

T1 sequence (Q92743 161-379 S328A): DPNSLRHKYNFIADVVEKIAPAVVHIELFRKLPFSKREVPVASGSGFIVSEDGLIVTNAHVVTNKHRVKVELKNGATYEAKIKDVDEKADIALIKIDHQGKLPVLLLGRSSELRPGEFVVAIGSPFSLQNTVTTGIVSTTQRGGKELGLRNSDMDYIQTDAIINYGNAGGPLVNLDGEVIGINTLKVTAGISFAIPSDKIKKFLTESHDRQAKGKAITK

In the case of `CC[C@H](C)[C@H](NC(=O)[C@@H]1CCCN1C(=O)[C@H](CC(=O)O)NC(=O)[C@H](C)NC(=O)[C@@H](N)Cc1c[nH]cn1)C(=O)N[C@H]1CSSC[C@@H]2NC(=O)[C@H](Cc3ccccc3)NC(=O)[C@H](Cc3c[nH]c4ccccc34)NC(=O)[C@H](C)NC(=O)CNC(=O)[C@H](CO)NC(=O)[C@@H]3CSSC[C@@H](C(=O)NCC(=O)N4CCC[C@H]4C(=O)N[C@@H](Cc4ccc(O)cc4)C(=O)N[C@H](C(=O)NCC(N)=O)C(C)C)NC(=O)[C@H](CO)NC(=O)[C@H](Cc4c[nH]c5ccccc45)NC(=O)[C@H]([C@@H](C)O)NC(=O)[C@H](C)NC(=O)[C@H](Cc4ccc(O)cc4)NC(=O)[C@H](Cc4ccc(O)cc4)NC(=O)[C@H](CSSC[C@H](NC(=O)[C@@H]4CCCN4C(=O)[C@H](CCCCN)NC(=O)[C@H](CC(N)=O)NC1=O)C(=O)N[C@@H](CCCCN)C(=O)N[C@@H]([C@@H](C)O)C(=O)N[C@@H](Cc1c[nH]cn1)C(=O)N[C@@H](CC(=O)O)C(=O)N[C@@H](CC(=O)O)C(=O)N3)NC(=O)[C@H](C)NC(=O)[C@H](CCC(N)=O)NC2=O` [3B3] (H-HADPICNKPCKTHDDCSGAWFCQACYYATWSCGPYVG-NH2; disulfide 6-22, 10-25, 16-32), the koff [1] is reported as 3.8 ± 0.5 s-1 x10-4, the kon [1] is reported as 1.1 ± 0.2 M-1 s-1 x104 and the Kd (SPR, calculated from kon and koff, CPI up to 10 µM) is reported as 34 nM.
